Test results published in US8143068B2, “Oxidation resistant indicator molecules” (Sensors for Medicine and Science, Inc., priority 2006, dated 2012).
pKd: −log10 of the molar value. Read-outs that look alike come from different tables or passages of the source.

How the values were obtained:
[1] = Modulation of fluorescence by varying concentrations of glucose (Example 1, FIG. 1)
Method: The modulation of the fluorescence of various molecules (depicted in FIG. 5) by varying concentrations of glucose was determined. […] In a further experiment, the unsubstituted control and two compounds of the present invention (4-trifluoromethyl and 3,4-difluoro) were subjected to oxidation treatment with 1 mM hydrogen peroxide, and the loss of fluorescence intensity was measured.

[2] = Stability of indicator gels towards oxidant: 1 mM hydrogen peroxide in PBS at 37° C.; format: physicochemical; settings: indicator gel
Method: Several compounds of the present invention were each copolymerized with hydroxyethyl methacrylate (HEMA), acrylic acid and ethylene glycol dimethacrylate (EGDMA) to form water insoluble polymer gels, as in Example 3. Their stability towards oxidant was assessed by subjecting the gels to 1 mM hydrogen peroxide in PBS at 37° C. […] In a further experiment, the fluorescent change (% modulation) from 0 to 20 mM glucose of various indicator gels was measured and the results are shown in FIG. 8.

[3] = Fluorescence and glucose response of indicator gels (Table 1); format: binding; settings: indicator gel; for pKd: 37° C.
[4] = Long term exposure of indicator gels to 10 μM hydrogen peroxide and 4 mM glucose/PBS at 37° C., loss of fluorescence intensity; format: physicochemical; settings: indicator gel
Method: Several gels (produced as in Example 3) containing compounds of the present invention (4-trifluoromethyl, 3,4-difluoro and 4-fluoro) and a control (unsubstituted) were subjected to long term exposure to 10 μM hydrogen peroxide and 4 mM glucose/PBS at 37° C., and the loss of fluorescence intensity was measured.
Two compounds according to the present invention (4-trifluoromethyl and 3,4-difluoro) and the unsubstituted control were each copolymerized with hydroxyethyl methacrylate (HEMA) and acrylic acid, and crosslinked with ethylene glycol dimethacrylate (EGDMA) to form a water insoluble polymer graft, which was then implanted into a rat to be subjected to in vivo oxidation for 22 or 43 days.

[5] = Stability of indicator gels in 1 mM hydrogen peroxide in the presence of 4 mM glucose in PBS at 37° C.; format: physicochemical; settings: indicator gel
Method: Several compounds of the present invention were each copolymerized with hydroxyethyl methacrylate (HEMA), acrylic acid and ethylene glycol dimethacrylate (EGDMA) to form water insoluble polymer gels, as in Example 3. Their stability towards oxidant was assessed by subjecting the gels to 1 mM hydrogen peroxide in PBS at 37° C. In a further experiment, two of the indicator gels (the 4-trifluoromethyl and 4-trifluoromethylsulfone gels) were subjected to 1 mM hydrogen peroxide in the presence of 4 mM glucose in PBS at 37° C. In a further experiment, the fluorescent change (% modulation) from 0 to 20 mM glucose of various indicator gels was measured and the results are shown in FIG. 8.

[6] = aqueous association with glucose; cited from earlier work

| t 1/2 [2] | Compound | further results |
| --- | --- | --- |
|  | 9-[N-[2-(4,4,5,5,-tetramethyl-1,3,2-dioxaborolano)-3-methylbenzyl]-N-[3-(methacrylamido)propylamino]methyl]-10-[N-[2-(4,4,5,5,-tetramethyl-1,3,2-dioxaborolano)-3-methylbenzyl]-N-[2-(carboxyethyl)amino]methyl]anthracene [Indicator 2-Methyl] | modulation of the fluorescence by glucose [1]: did not modulate well |
| 24 min | 9-[N-[2-(4,4,5,5,-tetramethyl-1,3,2-dioxaborolano)-4-(trifluoromethyl)benzyl]-N-[3-(methacrylamido)propylamino]methyl]-10-[N-[2-(4,4,5,5-tetra-methyl-1,3,2-dioxaborolano)-4-(trifluoromethyl)benzyl]-N-[2-(carboxyethyl)amino]methyl]-anthracene sodium salt [5-Trifluoromethyl] |  |
| 32 min | 9-[N-[6-(4,4,5,5,-tetramethyl-1,3,2-dioxaborolano)-2,3-dichlorobenzyl]-N-[3-(methacrylamido)propylamino]methyl]-10-[N-[6-(4,4,5,5,-tetramethyl-1,3,2-dioxaborolano)-2,3-dichlorobenzyl]-N-[2-(carboxyethyl)amino]methyl]anthracene sodium salt [3,4-Dichloro] |  |
| 13 min | 9-[N-[6-(4,4,5,5,-tetramethyl-1,3,2-dioxaborolano)-2,3-difluorobenzyl]-N-[3-(methacrylamido)propylamino]methyl]-10-[N-[6-(4,4,5,5,-tetramethyl-1,3,2-dioxaborolano)-2,3-difluorobenzyl]-N-[2-(carboxyethyl)amino]methyl]anthracene sodium salt [3,4-Difluoro] | AVERAGE % MODULATION (0 to 20 mM glucose) [3]: 137%; pKd [3]: 1.51; HALF LIFE (days) at 37° C. in 4 mM glucose and 10 μM H2O2 [4]: 33 days |
| 22 min | 9-[N-[6-(4,4,5,5,-tetramethyl-1,3,2-dioxaborolano)-2,4-(dichloro)benzyl]-N-[3-(methacrylamido)propylamino]methyl]-10-[N-[6-(4,4,5,5,-tetramethyl-1,3,2-dioxaborolano)-2,4-(dichloro)benzyl]-N-[2-(carboxyethyl)amino]-methyl]anthracene sodium salt [3,5-Dichloro] |  |
| 495 min | 9-[N-[6-(4,4,5,5,-tetramethyl-1,3,2-dioxaborolano)-2,4-bis(trifluoromethyl)benzyl]-N-[3-(methacrylamido)propylamino]methyl]-10-[N-[6-(4,4,5,5,-tetramethyl-1,3,2-dioxaborolano)-2,4-bis(trifluoromethyl)benzyl]-N-[2-(carboxyethyl)amino]-methyl]anthracene sodium salt [3,5-Bis(trifluoromethyl)] |  |
| 17 min | 9-[N-[6-(4,4,5,5,-tetramethyl-1,3,2-dioxaborolano)-3-(trifluoromethyl)benzyl]-N-[3-(methacrylamido)propylamino]methyl]-10-[N-[6-(4,4,5,5,-tetramethyl-1,3,2-dioxaborolano)-3-(trifluoromethyl)benzyl]-N-[2-(carboxyethyl)amino]methyl]anthracene sodium salt [4-Trifluoromethyl] | AVERAGE % MODULATION (0 to 20 mM glucose) [3]: 191%; pKd [3]: 1.91; HALF LIFE (days) at 37° C. in 4 mM glucose and 10 μM H2O2 [4]: 26 days; t 1/2 (minutes), in 4 mM Glucose Solution [5]: 30 min |
| 18 min | 9-[N-[6-(4,4,5,5,-tetramethyl-1,3,2-dioxaborolano)-3-cyanobenzyl]-N-[3-(methacrylamido)propylamino]methyl]-10-[N-[6-(4,4,5,5,-tetramethyl-1,3,2-dioxaborolano)-3-cyanobenzyl]-N-[2-(carboxyethyl)amino]methyl]anthracene sodium salt [Indicator 4-Cyano] |  |
| 13 min | 9-[N-[6-(4,4,5,5,-tetramethyl-1,3,2-dioxaborolano)-3-fluorobenzyl]-N-[3-(methacrylamido)propylamino]methyl]-10-[N-[6-(4,4,5,5,-tetramethyl-1,3,2-dioxaborolano)-3-fluorobenzyl]-N-[2-(carboxyethyl)amino]methyl]anthracene sodium salt [Indicator 4-Fluoro] |  |
| 24 min | C=C(C)C(=O)NCCCN(Cc1cc(OC(F)(F)F)ccc1B1OC(C)(C)C(C)(C)O1)Cc1c2ccccc2c(CN(CCC(=O)[O-])Cc2cc(OC(F)(F)F)ccc2B2OC(C)(C)C(C)(C)O2)c2ccccc12.[Na+] [4-Trifluoromethoxy, 9-[N-[6-(4,4,5,5,-tetramethyl-1,3,2-dioxaborolano)-3-(trifluoromethoxy)benzyl]-N-[3-(methacrylamido)propylamino]methyl]-10-[N-[6-(4,4,5,5-tetra-methyl-1,3,2-dioxaborolano)-3-(trifluoromethoxy)benzyl]-N-[2-(carboxyethyl)amino]methyl]-anthracene sodium salt] |  |
|  | C=C(C)C(=O)NCCCN(Cc1cc([N+](=O)[O-])ccc1B1OC(C)(C)C(C)(C)O1)Cc1c2ccccc2c(CN(CCC(=O)[O-])Cc2cc([N+](=O)[O-])ccc2B2OC(C)(C)C(C)(C)O2)c2ccccc12.[Na+] [Indicator 4-Nitro, 9-[N-[6-(4,4,5,5,-tetramethyl-1,3,2-dioxaborolano)-3-nitrobenzyl]-N-[3-(methacrylamido)propylamino]methyl]-10-[N-[6-(4,4,5,5,-tetramethyl-1,3,2-dioxaborolano)-3-nitrobenzyl]-N-[2-(carboxyethyl)amino]methyl]anthracene sodium salt] | modulation of the fluorescence by glucose [1]: did not modulate well |
| 6 min | C=C(C)C(=O)NCCCN(Cc1ccc(F)cc1B1OC(C)(C)C(C)(C)O1)Cc1c2ccccc2c(CN(CCC(=O)[O-])Cc2ccc(F)cc2B2OC(C)(C)C(C)(C)O2)c2ccccc12.[Na+] [Indicator 5-Fluoro, 9-[N-[2-(4,4,5,5,-tetramethyl-1,3,2-dioxaborolano)-4-fluorobenzyl]-N-[3-(methacrylamido)propylamino]methyl]-10-[N-[2-(4,4,5,5,-tetramethyl-1,3,2-dioxaborolano)-4-fluorobenzyl]-N-[2-(carboxyethyl)amino]methyl]anthracene sodium salt] |  |
|  | OB(O)c1ccccc1 [phenylboronic acid] | pKd [6]: 2.04 |
